Values joined by “and” are separate entries in the source; they are usually repeats but may differ in a detail not shown here. Identical values can stand only once. Toxic doses and inconclusive results are not listed. The calls were made as follows: active = survival T/C of 150% or more; inactive = T/C below 125% in these data.
Tested on: BDF1 mice, P388 leukemia ip, median survival T/C
Assay: NCI In Vivo Anticancer Drug Screen. Data for tumor model P388 Leukemia (intraperitoneal) in B6D2F1 (BDF1) mice
Conditions: endpoint: median survival time, higher = longer survival
Outline: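 Steps: implant the tumour, treat one group with compound and another with vehicle, record survival, then divide treated by control.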

[1] = dose: 50.0 mg/kg/injection, schedule: Q01DX009 (ip), vehicle: saline with Tween-80
[2] = dose: 100.0 mg/kg/injection, schedule: Q01DX009 (ip), vehicle: saline with Tween-80
[3] = dose: 200.0 mg/kg/injection, schedule: Q01DX009 (ip), vehicle: saline with Tween-80
[4] = dose: 100.0 mg/kg/injection, schedule: Q04DX003 (ip), vehicle: saline with Tween-80
[5] = dose: 200.0 mg/kg/injection, schedule: Q04DX003 (ip), vehicle: saline with Tween-80
[6] = dose: 400.0 mg/kg/injection, schedule: Q01DX009 (ip), vehicle: saline with Tween-80
[7] = dose: 6.25 mg/kg/injection, schedule: Q01DX009 (ip), vehicle: saline with Tween-80
[8] = dose: 12.5 mg/kg/injection, schedule: Q01DX009 (ip), vehicle: saline with Tween-80
[9] = dose: 25.0 mg/kg/injection, schedule: Q01DX009 (ip), vehicle: saline with Tween-80
[10] = dose: 25.0 mg/kg/injection, schedule: Q01DX009 (ip), vehicle: saline
[11] = dose: 50.0 mg/kg/injection, schedule: Q01DX009 (ip), vehicle: saline
[12] = dose: 50.0 mg/kg/injection, schedule: Q04DX003 (ip), vehicle: saline
[13] = dose: 100.0 mg/kg/injection, schedule: Q01DX009 (ip), vehicle: saline
[14] = dose: 100.0 mg/kg/injection, schedule: Q04DX003 (ip), vehicle: saline
[15] = dose: 200.0 mg/kg/injection, schedule: Q01DX009 (ip), vehicle: saline
[16] = dose: 200.0 mg/kg/injection, schedule: Q04DX003 (ip), vehicle: saline
[17] = dose: 400.0 mg/kg/injection, schedule: Q01DX009 (ip), vehicle: saline
[18] = dose: 400.0 mg/kg/injection, schedule: Q04DX003 (ip), vehicle: saline
[19] = dose: 100.0 mg/kg/injection, schedule: Q04DX003 (ip), vehicle: Klucel (hydroxypropylcellulose) (HPC)
[20] = dose: 200.0 mg/kg/injection, schedule: Q04DX003 (ip), vehicle: Klucel (hydroxypropylcellulose) (HPC)
[21] = dose: 400.0 mg/kg/injection, schedule: Q04DX003 (ip), vehicle: Klucel (hydroxypropylcellulose) (HPC)

Measured: T/C

C=C(C)C(=O)NCCC(=O)Oc1ccc([N+](=O)[O-])cc1
inactive: [1] 95 % of control | [2] 87 % of control | [3] 86 % of control

COc1ccc(OC)c(C(C)(O)CC(=O)O)c1 (stereo not given)
inactive: [1] 89 % of control | [2] 107 % of control | [4] 112 % of control | [3] 105 % of control | [5] 103 % of control | [6] 90 % of control | dose: 400.0 mg/kg/injection, schedule: Q04DX003 (ip), vehicle: saline with Tween-80 117 % of control

Cc1ccccc1OCCCCCl
inactive: [2] 115 % of control | [3] 107 % of control | [6] 115 % of control

O=S(=O)(F)c1ccc(N=C=S)cc1
inactive: [7] 120 % of control | [8] 116 % of control | [9] 112 % of control

COc1ccc(/C=C/C(C)=O)cc1OC
inactive: [10] 94 % of control | dose: 25.0 mg/kg/injection, schedule: Q04DX003 (ip), vehicle: saline 107 % of control | [11] 99 % of control | [12] 106 % of control | [13] 110 % of control | [14] 105 % of control | [15] 103 % of control | [16] 100 % of control | [17] 108 % of control | [18] 107 % of control

CC12OC1C(=O)c1ccccc1C2=O (stereo not given)
inactive: dose: 0.75 mg/kg/injection, schedule: Q01DX009 (ip), vehicle: Klucel (hydroxypropylcellulose) (HPC) 87 % of control | dose: 1.5 mg/kg/injection, schedule: Q01DX009 (ip), vehicle: Klucel (hydroxypropylcellulose) (HPC) 100 % of control | dose: 2.5 mg/kg/injection, schedule: Q01DX009 (ip), vehicle: Klucel (hydroxypropylcellulose) (HPC) 89 % of control | dose: 3.0 mg/kg/injection, schedule: Q01DX009 (ip), vehicle: Klucel (hydroxypropylcellulose) (HPC) 95 % of control | dose: 5.0 mg/kg/injection, schedule: Q04DX003 (ip), vehicle: Klucel (hydroxypropylcellulose) (HPC) 92 % of control | dose: 10.0 mg/kg/injection, schedule: Q04DX003 (ip), vehicle: Klucel (hydroxypropylcellulose) (HPC) 92 % of control

CC1(C)N=C(N)N=C(N)N1c1ccc(CNC(=O)Nc2cccc(S(=O)(=O)F)c2)cc1
active: [12] 150 % of control | dose: 75.0 mg/kg/injection, schedule: Q04DX003 (ip), vehicle: saline 163 % of control | dose: 99.0 mg/kg/injection, schedule: Q04DX003 (ip), vehicle: saline 200 % of control | dose: 150.0 mg/kg/injection, schedule: Q04DX003 (ip), vehicle: saline 159 % of control and 195 % of control and 215 % of control | dose: 225.0 mg/kg/injection, schedule: Q04DX003 (ip), vehicle: saline 225 % of control and 163 % of control | dose: 300.0 mg/kg/injection, schedule: Q04DX003 (ip), vehicle: saline 177 % of control
inactive: dose: 35.0 mg/kg/injection, schedule: Q04DX003 (ip), vehicle: saline 104 % of control

FCc1nc2nc(Cl)c(Cl)nc2[nH]1
inactive: dose: 1.0 mg/kg/injection, schedule: Q01DX009 (ip), vehicle: saline 96 % of control | dose: 2.0 mg/kg/injection, schedule: Q01DX009 (ip), vehicle: saline 99 % of control and 100 % of control | dose: 4.0 mg/kg/injection, schedule: Q01DX009 (ip), vehicle: saline 90 % of control and 105 % of control | dose: 8.0 mg/kg/injection, schedule: Q01DX009 (ip), vehicle: saline 99 % of control | dose: 16.0 mg/kg/injection, schedule: Q01DX009 (ip), vehicle: saline 100 % of control | [12] 104 % of control | [14] 101 % of control

COC(OC)c1[nH]c(=S)[nH]c(=O)c1Cc1cccc(Cl)c1
inactive: dose: 100.0 mg/kg/injection, schedule: Q01DX001 (ip), vehicle: Klucel (hydroxypropylcellulose) (HPC) 109 % of control | dose: 100.0 mg/kg/injection, schedule: Q01DX009 (ip), vehicle: Klucel (hydroxypropylcellulose) (HPC) 122 % of control | [19] 113 % of control | dose: 200.0 mg/kg/injection, schedule: Q01DX001 (ip), vehicle: Klucel (hydroxypropylcellulose) (HPC) 104 % of control | [20] 100 % of control | dose: 400.0 mg/kg/injection, schedule: Q01DX001 (ip), vehicle: Klucel (hydroxypropylcellulose) (HPC) 104 % of control | dose: 400.0 mg/kg/injection, schedule: Q01DX009 (ip), vehicle: Klucel (hydroxypropylcellulose) (HPC) 100 % of control | [21] 95 % of control

CC[P+](CC)(CC)CCCCI
inactive: dose: 6.25 mg/kg/injection, schedule: Q01DX009 (ip), vehicle: saline 120 % of control | dose: 12.5 mg/kg/injection, schedule: Q01DX009 (ip), vehicle: saline 123 % of control | [10] 108 % of control and 120 % of control | [11] 99 % of control

CCC(C)(CC(=O)O)CC(=O)O
inactive: dose: 3.12 mg/kg/injection, schedule: Q01DX009 (ip), vehicle: saline with Tween-80 95 % of control | [7] 112 % of control | [8] 116 % of control | [9] 87 % of control | [1] 87 % of control | [14] 110 % of control | [16] 120 % of control | [18] 120 % of control

SC1CC[N-]CC1.SC1CC[N-]CC1.[Cl][Pt+2][Cl]
inactive: dose: 50.0 mg/kg/injection, schedule: Q01DX009 (ip), vehicle: water 107 % of control | dose: 100.0 mg/kg/injection, schedule: Q01DX009 (ip), vehicle: water 91 % of control | dose: 100.0 mg/kg/injection, schedule: Q04DX003 (ip), vehicle: water 98 % of control | dose: 200.0 mg/kg/injection, schedule: Q04DX003 (ip), vehicle: water 98 % of control | dose: 400.0 mg/kg/injection, schedule: Q04DX003 (ip), vehicle: water 96 % of control

O=S(=O)(O)c1cc(S(=O)(=O)O)c2cc(N=Nc3ccc(N(CC4CO4)CC4CO4)cc3)ccc2c1 (stereo not given)
inactive: dose: 100.0 mg/kg/injection, schedule: Q01DX001 (ip), vehicle: saline 108 % of control | dose: 200.0 mg/kg/injection, schedule: Q01DX001 (ip), vehicle: saline 102 % of control | dose: 400.0 mg/kg/injection, schedule: Q01DX001 (ip), vehicle: saline 113 % of control

CC1=CCCC1
inactive: [13] 118 % of control | [14] 113 % of control | [15] 118 % of control | [16] 104 % of control | [17] 118 % of control | [18] 104 % of control

COc1ccc(C2(C#N)CCCC2)cc1
inactive: [2] 100 % of control | [3] 108 % of control | [6] 108 % of control

CC1=CC(=NC(=O)CBr)C=C/C1=N\S(=O)(=O)c1ccccc1
inactive: [7] 113 % of control | [8] 111 % of control | [9] 106 % of control

CC1(O)CC(=O)c2c(ccc3c2C(=O)c2cccc(O)c2C3=O)C1 (stereo not given)
inactive: dose: 0.5 mg/kg/injection, schedule: Q01DX009 (ip), vehicle: Klucel (hydroxypropylcellulose) (HPC) 101 % of control | dose: 1.0 mg/kg/injection, schedule: Q01DX009 (ip), vehicle: Klucel (hydroxypropylcellulose) (HPC) 101 % of control | dose: 2.0 mg/kg/injection, schedule: Q01DX009 (ip), vehicle: Klucel (hydroxypropylcellulose) (HPC) 109 % of control | dose: 4.0 mg/kg/injection, schedule: Q01DX009 (ip), vehicle: Klucel (hydroxypropylcellulose) (HPC) 111 % of control

CC(C)(Br)C(=O)c1ccco1
inactive: [9] 109 % of control | [1] 113 % of control | [2] 113 % of control

CCCC(Nc1nccs1)Nc1nccs1
inactive: [1] 107 % of control | [2] 101 % of control | [3] 101 % of control

OC1c2cc(Cl)ccc2-c2c(Cl)cc(Cl)cc21 (stereo not given)
inactive: [1] 104 % of control | [2] 100 % of control | [4] 91 % of control | [3] 108 % of control | [5] 100 % of control

CC(=O)Nc1onc(C)c1[N+](=O)[O-]
inactive: [13] 100 % of control | [14] 104 % of control | [15] 100 % of control | [16] 109 % of control | [17] 104 % of control | [18] 109 % of control

CCOC(=O)c1ccc(=O)n(C(C)C)c1
inactive: [19] 90 % of control | [20] 90 % of control | [21] 100 % of control
